Data taken from publication PMC8780828 (Viruses, 2021).
Like-named read-outs stand apart in the source and are kept apart here.

How the values were obtained:
in vitro = settings: human, Caco-2, A-to-B Papp (cell batch quality control)
[1] = tested on: pseudovirus NL4-3ΔEnv-NanoLuc/SARS-CoV-2; test: organism not typed; assay type: cell-based; settings: HT-1080; n=3
[2] = tested on: pseudovirus NL4-3ΔEnv-NanoLuc/SARS-CoV-2; test: organism not typed; assay type: cell-based; settings: A549-ACE2; n=3
[3] = tested on: pseudovirus NL4-3ΔEnv-NanoLuc/SARS-CoV; test: microbe, parasite or virus in culture; assay type: cell-based; settings: Severe acute respiratory syndrome coronavirus, HT-1080
[4] = tested on: pseudovirus NL4-3ΔEnv-NanoLuc/SARS-CoV; test: microbe, parasite or virus in culture; assay type: cell-based; settings: Severe acute respiratory syndrome coronavirus, A549-ACE2
[5] = tested on: pseudovirus NL4-3ΔEnv-NanoLuc/MERS-CoV; test: microbe, parasite or virus in culture; assay type: cell-based; settings: Middle East respiratory syndrome-related coronavirus, Huh-7
[6] = tested on: pseudovirus NL4-3ΔEnv-NanoLuc/MERS-CoV; test: microbe, parasite or virus in culture; assay type: cell-based; settings: Middle East respiratory syndrome-related coronavirus, MRC5
[7] = tested on: control pseudovirus NL4-3.Luc.R-E-/A-MLV; test: Control pseudovirus A-MLV assay in 293T/ACE2 cells; assay type: cell-based, amphotropic murine leukemia virus (A-MLV); settings: NL43, 293T/ACE2
[8] = tested on: NL4-3ΔEnv-NanoLuc/SARS-CoV-2; test: organism not typed; assay type: cell-based; settings: for IC50: read-out: IC50 (range over the three cell lines)
[9] = molecular target: SARS-CoV-2 spike S1 subunit protein (Severe acute respiratory syndrome coronavirus 2, UniProt P0DTC2); assay type: binding
[10] = tested on: pseudovirus NL4-3ΔEnv-NanoLuc/SARS-CoV-2; test: SARS-CoV-2 pseudovirus assay with pre-treated 293T/ACE2 cells; assay type: cell-based; settings: 293T/ACE2 cells pre-treated with compound 30 min before infection
[11] = tested on: SARS-CoV-2 (US_WA-1/2020); assay type: cell-based
β-lactamase = assay type: biochemical
Trypsin = assay type: biochemical
[12] = molecular target: malate dehydrogenase (MDH); assay type: biochemical
[13] = rat, in vivo
in vivo = settings: female, Sprague Dawley, rat; for MRT inf: MRT0-inf_obs
[14] = tested on: pseudovirus NL4-3ΔEnv-NanoLuc/SARS-CoV-2; test: organism not typed; assay type: cell-based; settings: 293T/ACE2
[15] = tested on: pseudovirus NL4-3ΔEnv-NanoLuc/SARS-CoV; test: microbe, parasite or virus in culture; assay type: cell-based; settings: Severe acute respiratory syndrome coronavirus, 293T/ACE2; n=3
MERS-CoV pseudovirus = test: microbe, parasite or virus in culture; assay type: cell-based
[16] = female, Sprague Dawley, iv, 5 mg/kg

`C[C@H]1O[C@@H](O[C@H]2[C@@H](O)C[C@H](O[C@H]3[C@@H](O)C[C@H](O[C@H]4CC[C@@]5(C)[C@H](CC[C@@H]6[C@@H]5C[C@@H](O)[C@]5(C)[C@@H](C7=CC(=O)OC7)CC[C@]65O)C4)O[C@@H]3C)O[C@@H]2C)C[C@H](O)[C@@H]1O` [Digoxin, reference compound] showed a Papp A→B (in vitro) of 3.4 nm/s.

`O=C(O)c1cccc(-c2ccc(/C=C3\SC(=S)N(CCc4ccccc4)C3=O)o2)c1` [NBCoV2] gave an IC50 [1] of 0.0253 ± 0.0006 µM, an IC50 [2] of 0.058 ± 0.0017 µM and an IC50 [3] of 0.0193 ± 0.0011 µM. For the same molecule, the IC50 [4] was 0.111 ± 0.009 µM, the IC50 [5] was 0.112 ± 0.007 µM and the IC50 [6] was 0.077 µM. For the same molecule, the IC50 [7] was 0.783 ± 0.076 µM, the “IC100 (range of IC100 values detected in the three cell lines)” value [8] was 0.3 to 1 µM and the IC50 [8] was 0.0228 to 0.058 µM. It also gave a kd [9] of 0.0251 s⁻¹, an IC50 [10] of over 2 µM and an IC100 [11] of over 10 µM. The IC50 (β-lactamase) was over 2 µM, the IC50 (Trypsin) was over 2 µM and the IC50 [12] was over 2 µM. For the same molecule, the CLobs [13, 16] was 0.00027 (mg/kg)/(ng/mL)/h, the Vss_obs [13, 16] was 0.0014 (mg/kg)/(ng/mL) and the AUC0-t ([13]; iv, 5 mg/kg) was 18,074.45 ng/mL ∗ h. The AUC0-t ([13]; po, 10 mg/kg) was 318.78 ng/mL ∗ h, the Vz/F_obs ([13]; po, 10 mg/kg) was 0.1759 (mg/kg)/(ng/mL) and the bioavailability (in vivo; F% (bioavailability)) was 0.9%. For the same molecule, the C0 (in vivo; iv, 5 mg/kg) was 1.71 µg/mL, the Tmax (in vivo; iv, 5 mg/kg) was 2 h and the Cmax (in vivo; iv, 5 mg/kg) was 2.22 µg/mL. For the same molecule, the MRT inf (in vivo; iv, 5 mg/kg) was 5.09 h, the half-life (in vivo; iv, 5 mg/kg, t1/2) was 3.52 h and the Tmax (in vivo; po, 10 mg/kg) was 4 h. For the same molecule, the Cmax (in vivo; po, 10 mg/kg) was 0.0301 µg/mL, the MRT inf (in vivo; po, 10 mg/kg) was 7.28 h and the half-life (in vivo; po, 10 mg/kg, t1/2) was 3.96 h. For the same molecule, the half-life (in vivo; t1/2 (range PO and IV)) was 3.5 to 3.9 h.

With `O=C(O)c1cc(-c2ccc(/C=C3\SC(=S)N(CCc4ccccc4)C3=O)o2)ccc1F` [NBCoV3] the IC50 [14] was 0.0601 ± 0.0085 µM, the IC50 [1] was 0.064 ± 0.018 µM and the IC50 [2] was 0.12 ± 0.005 µM. For the same molecule, the IC50 [15] was 0.0178 ± 0.004 µM, the IC50 ([3]; n=3, read-out: IC50) was 0.0257 ± 0.0006 µM and the IC50 ([4]; n=3, read-out: IC50) was 0.157 ± 0.0125 µM. The IC50 ([5]; n=3, read-out: IC50) was 0.158 ± 0.014 µM, the IC50 ([6]; n=3, read-out: IC50) was 0.123 ± 0.017 µM and the IC50 [7] was 0.96 ± 0.057 µM. The “IC100 (range of IC100 values detected in the three cell lines)” value [8] was 0.5 to 1.2 µM, the IC50 [8] was 0.0601 to 0.12 µM and the IC50 [10] was over 2 µM. The IC100 [11] was over 10 µM, the IC50 (β-lactamase) was over 2 µM and the IC50 (Trypsin) was over 2 µM. The IC50 [12] was over 2 µM.

`Cc1ccc(-c2ccc(/C=C3\SC(=S)N(CCc4ccccc4)C3=O)o2)cc1C(=O)O` [NBCoV4] gave an IC50 [14] of 0.026 ± 0.001 µM, an IC50 [1] of 0.0477 ± 0.016 µM and an IC50 [2] of 0.073 ± 0.0041 µM. For the same molecule, the IC50 [15] was 0.08 ± 0.002 µM, the IC50 ([3]; n=3, read-out: IC50) was 0.054 ± 0.0035 µM and the IC50 ([4]; n=3, read-out: IC50) was 0.1 ± 0.013 µM. The IC50 ([5]; n=3, read-out: IC50) was 0.131 ± 0.006 µM, the IC50 ([6]; n=3, read-out: IC50) was 0.08 ± 0.018 µM and the IC50 [7] was 1.62 ± 0.115 µM. The “IC100 (range of IC100 values detected in the three cell lines)” value [8] was 0.3 to 1 µM, the IC50 [8] was 0.026 to 0.073 µM and the IC50 [10] was over 2 µM. It also gave an IC100 [11] of over 10 µM, an IC50 (β-lactamase) of over 2 µM and an IC50 (Trypsin) of over 2 µM. It also gave an IC50 [12] of over 2 µM.

`Cc1c(C(=O)O)cccc1-c1ccc(/C=C2\SC(=S)N(CCc3ccccc3)C2=O)o1` [NBCoV5] showed an IC50 [14] of 1.21 ± 0.24 µM, an IC50 [1] of 1.05 ± 0.252 µM and an IC50 [2] of over 2 µM. The IC50 [15] was 1.85 ± 0.179 µM, the IC50 ([3]; n=3, read-out: IC50) was 1.76 ± 0.33 µM and the IC50 ([4]; n=3, read-out: IC50) was over 2 µM. The IC50 ([5]; n=3, read-out: IC50) was over 2 µM, the IC50 ([6]; n=3, read-out: IC50) was over 2 µM and the IC50 [7] was over 2 µM. For the same molecule, the “IC100 (range of IC100 values detected in the three cell lines)” value [8] was over 2 µM, the IC50 [10] was over 2 µM and the IC100 [11] was over 10 µM. It also gave an IC50 (β-lactamase) of over 2 µM, an IC50 (Trypsin) of over 2 µM and an IC50 [12] of over 2 µM. The MERS-CoV inhibitory activity (MERS-CoV pseudovirus) was “no MERS-CoV inhibitory activity”.

Molecule `CCc1ccc(-c2ccc(/C=C3\SC(=S)N(CCc4ccccc4)C3=O)o2)cc1C(=O)O` [NBCoV6] has an IC50 [14] of 0.185 ± 0.0058 µM, an IC50 [1] of 0.245 ± 0.005 µM and an IC50 [2] of 0.613 ± 0.072 µM. The IC50 [15] was 0.175 ± 0.007 µM, the IC50 ([3]; n=3, read-out: IC50) was 0.133 ± 0.0095 µM and the IC50 ([4]; n=3, read-out: IC50) was 0.867 ± 0.062 µM. It also gave an IC50 ([5]; n=3, read-out: IC50) of 0.569 ± 0.031 µM, an IC50 ([6]; n=3, read-out: IC50) of 0.945 ± 0.077 µM and an IC50 [7] of over 2 µM. For the same molecule, the “IC100 (range of IC100 values detected in the three cell lines)” value [8] was 1 to 3 µM, the IC50 [10] was over 2 µM and the IC100 [11] was over 10 µM.

For `O=C(O)c1cccc(-c2ccc(/C=C3\SC(=S)N(CCc4ccccc4)C3=O)o2)c1F` [NBCoV7], the IC50 [14] was 0.298 ± 0.06 µM, the IC50 [1] was 0.29 ± 0.057 µM and the IC50 [2] was 0.416 ± 0.025 µM. The IC50 [15] was 0.111 ± 0.0017 µM, the IC50 ([3]; n=3, read-out: IC50) was 0.052 ± 0.0089 µM and the IC50 ([4]; n=3, read-out: IC50) was 0.271 ± 0.076 µM. It also gave an IC50 ([5]; n=3, read-out: IC50) of 0.933 ± 0.153 µM, an IC50 ([6]; n=3, read-out: IC50) of 0.927 ± 0.0635 µM and an IC50 [7] of over 2 µM. The “IC100 (range of IC100 values detected in the three cell lines)” value [8] was 1 to 3 µM, the IC50 [10] was over 2 µM and the IC100 [11] was over 10 µM.

Work on `O=C(O)c1cc(-c2ccc(/C=C3\SC(=S)N(CCc4ccccc4)C3=O)o2)ccc1Br` [NBCoV8] yielded an IC50 [14] of 0.0658 ± 0.0062 µM, an IC50 [1] of 0.094 ± 0.009 µM and an IC50 [2] of 0.254 ± 0.027 µM. It also gave an IC50 [15] of 0.128 ± 0.0067 µM, an IC50 ([3]; n=3, read-out: IC50) of 0.225 ± 0.026 µM and an IC50 ([4]; n=3, read-out: IC50) of 0.7 ± 0.07 µM. It also gave an IC50 ([5]; n=3, read-out: IC50) of 0.509 ± 0.043 µM, an IC50 ([6]; n=3, read-out: IC50) of 0.559 ± 0.066 µM and an IC50 [7] of over 2 µM. The “IC100 (range of IC100 values detected in the three cell lines)” value [8] was 1 to 2.5 µM, the IC50 [10] was over 2 µM and the IC100 [11] was over 10 µM.
